Read-outs that look alike come from different tables or passages of the source.
Legend:
[1] = LD50 determined in the mouse (C. S. Weil method); set-up: unit not given here; conditions: in vivo
From the text: Accordingly, the present invention also features pharmaceutical compositions comprising a pharmaceutically effective amount of a compound having the structural formula (I) as above-defined, or a pharmaceutically acceptable salt thereof, in admixture with conventional pharmaceutically acceptable dileunt or carrier. Suitable such carriers and unit dosage amounts will be apparent to those skilled in this art. Compare, for example, Remington's Pharmaceutical Sciences, 4th Edition (1970). The LD50 of the alkanoylanilides according to the invention was determined in the mouse, both in C. S. Weil, following the method describedBiometrics, 8, 249 (1952). The results obtained were as follows, with the designating for the active compounds corresponding to those set forth in the following specific examples: […]

[2] = test system: passive cutaneous anaphylaxis; assay: PCA Test: passive cutaneous anaphylaxis induced in the rat with homologous antibodies (Goose and Blair); inhibition of spot areas; type: in vivo; conditions: read-out: PCA Test - ED50 (inhibition of spot areas)
Description: In order to evaluate the antianaphylactic activity of the subject novel compounds, the method of Goose and Blair was followed, in which passive cutaneous anaphylaxis was induced in the rat with homologous antibodies [Immunology, 16, 749 (1969)]. Female albino rats were immunized intramuscularly with egg albumin and intraperitoneally with Hemophylus pertussis vaccine.
Twelve days after treatment, the animals were bled and the sera thus obtained were injected intradermally into another group of rats. Twenty-four hours later, the animals were challenged with an i.v. solution of ovoalbumin and Evans blue dye, and sacrificed after 30 minutes. The test drugs were administered by different routes of administration and at different times before the challenge. Inhibition of spot areas (ED50) was determined.

[3] = test system: bronchospasm induced by histamine; assay: Antibronchospastic activity (Konzett and Rossler): inhibition of bronchospasm induced in anaesthetized guinea-pig by histamine; type: in vivo; conditions: Cavia porcellus, iv, 1 min, read-out: ED75 (inhibition of histamine-induced bronchospasm)
Description: The antibronchospastic activity was determined according to the method of Konzett and Rossler [Arch. exp. Path. Pharmakol., 195, 71 (1940)], determining the inhibition of bronchospasm induced in anaesthetized guinea-pig by histamine. For this purpose, the bronchospasms were induced by administering intravenously to the animals 0.5-2.5 μg/Kg of hystamine. Inhibition (ED75) was determined one minute after the injection of the drug under test, and the results obtained are reported in the following Table III: […]

[4] = anaesthetized guinea-pig, i.v., histamine 0.5-2.5 μg/Kg i.v., one minute after injection of the drug

| SMILES | LD50 ([1]; ip) | LD50 ([1]; po, os) | ED50 ([2]; Rattus norvegicus, po) | ED75 [3] | ED50 ([2]; Rattus norvegicus, ip) | ED50 ([2]; po, rat, os) | ED50 ([2]; rat, ip) | ED75 [3, 4] |
| --- | --- | --- | --- | --- | --- | --- | --- | --- |
| CC1CN(c2ccccn2)CCN1CCC(=O)Nc1ccc([N+](=O)[O-])cc1 (stereo not shown) [compound 30] | 0.42 | 1.2 | 230 µmol/kg | 1.75 µmol/kg |  |  |  |  |
| O=C(CCN1CCN(c2ccccn2)CC1)Nc1cccc([N+](=O)[O-])c1 [compound 4] | 0.42 | 2.07 | 68 µmol/kg | 0.37 µmol/kg | 56 µmol/kg |  |  |  |
| Cc1cccc(C)c1NC(=O)CCN1CCN(c2ccccn2)CC1 [compound 18] | 0.8 |  | 13 µmol/kg | 1.57 µmol/kg | 81 µmol/kg |  |  |  |
| O=C(CCN1CCN(c2ccccn2)CC1)Nc1ccc(O)c([N+](=O)[O-])c1 [compound 21] | 2.38 | 3.74 | 160 µmol/kg | 1.1 µmol/kg | 270 µmol/kg |  |  |  |
| O=C(CCN1CCN(c2ccccn2)CC1)Nc1ccc(NC(=O)Nc2ccccc2)cc1 [compound 8] | > 2.25 | > 6.7 |  |  |  |  |  |  |
| COc1cccc(N2CCN(CCC(=O)Nc3ccccc3[N+](=O)[O-])CC2)n1 [compound 34] |  | > 7.1 |  |  |  |  |  |  |
| Cc1cccc(C)c1NC(=O)CN1CCN(c2ccccn2)CC1 [compound 1] | 0.9 |  |  |  | 337 µmol/kg |  |  |  |
| O=C(CCN1CCN(c2ccccn2)CC1)Nc1ccccc1[N+](=O)[O-] [compound 29] | 2.08 | 3.7 |  | 0.58 µmol/kg |  |  |  |  |
| N#Cc1ccc(NC(=O)CCN2CCN(c3ccccn3)CC2)cc1 [compound 43] | 0.39 | 0.62 |  |  |  |  |  |  |
| COc1ccc(NC(=O)CCN2CCN(c3ccccn3)CC2)cc1 [compound 3] | 0.71 | 1.16 |  | 0.24 µmol/kg | 19 µmol/kg |  |  |  |
| O=C(CCN1CCN(c2ccccn2)CC1)Nc1ccc(O)cc1 [compound 20] | > 2.5 | 5.2 |  |  |  | 170 µmol/kg | 120 µmol/kg | 0.49 µmol/kg |
| COc1cccc(N2CCN(CCC(=O)Nc3ccccc3N)CC2)n1 [compound 38] | 0.37 | 0.67 | 44 µmol/kg |  |  |  |  |  |
| Cc1cc(C)c(C)c(NC(=O)CN2CCN(c3ccccn3)CC2)c1C [compound 2] | 0.65 |  |  |  | 212 µmol/kg |  |  |  |
| O=C(CCN1CCN(c2ccccn2)CC1)Nc1ccccc1Cl [compound 33] | 1.29 | 2.64 | 47 µmol/kg | 1.12 µmol/kg | 151 µmol/kg |  |  |  |
| Nc1ccccc1NC(=O)CCN1CCN(c2ccccn2)CC1 [compound 22] | 3.2 | 2.08 | 100 µmol/kg | 1.63 µmol/kg |  |  |  |  |
| CC1CN(c2ccccn2)CCN1CCC(=O)Nc1ccc(N)cc1 (stereo not shown) [compound 24] | 1.18 | 2.97 | 39 µmol/kg | 0.59 µmol/kg |  |  |  |  |
| O=C(CCN1CCN(c2ccccn2)CC1)Nc1cc([N+](=O)[O-])cc([N+](=O)[O-])c1 [compound 32] |  | 1.57 |  | 2.4 µmol/kg |  |  |  |  |
| CC(=O)c1ccccc1NC(=O)CCN1CCN(c2ccccn2)CC1 [compound 39] | 2.3 | > 6.91 | 73 µmol/kg | 0.89 µmol/kg |  |  |  |  |
| CC(O)c1ccc(NC(=O)CCN2CCN(c3ccccn3)CC2)cc1 (stereo not shown) [compound 14] | 3.25 | 5.97 | 106 µmol/kg | 0.48 µmol/kg | 32 µmol/kg |  |  |  |

| SMILES | LD50 ([1]; ip) | LD50 ([1]; po, os) | ED50 ([2]; Rattus norvegicus, po) | ED75 [3] | ED50 ([2]; Rattus norvegicus, ip) | ED50 ([2]; po, rat, os) | ED50 ([2]; rat, ip) | ED75 [3, 4] |
| --- | --- | --- | --- | --- | --- | --- | --- | --- |
| Cc1ccccc1NC(=O)CCN1CCN(c2ccccn2)CC1 [compound 17] | 1.01 | 1.58 | 67 µmol/kg | 0.47 µmol/kg |  |  |  |  |
| Nc1cccc(NC(=O)CCN2CCN(c3ccccn3)CC2)c1 [compound 23] | 0.9 | 0.85 | 170 µmol/kg | 0.61 µmol/kg |  |  |  |  |
| O=C(CCN1CCN(c2ccccn2)CC1)Nc1ccccc1 [compound 16] | 1.16 | 1.35 | 61 µmol/kg | 1.93 µmol/kg | 64 µmol/kg |  |  |  |
| CNC(=O)Nc1ccc(NC(=O)CCN2CCN(c3ccccn3)CC2)cc1 [compound 28] | > 2.15 | > 6.5 |  |  |  | 73 µmol/kg |  | 0.29 µmol/kg |
| CCC(=O)Nc1ccc(NC(=O)CCN2CCN(c3ccccn3)CC2)cc1 [compound 11] | 1.05 | 1.53 |  | 0.23 µmol/kg | 160 µmol/kg |  |  |  |
| CC(=O)Nc1ccc(NC(=O)CCN2CCN(c3ccccn3)CC2)cc1 [compound 27] |  | > 6.81 |  |  |  | 92 µmol/kg | 120 µmol/kg | 0.97 µmol/kg |
| CSc1ccc(NC(=O)CCN2CCN(c3ccccn3)CC2)cc1 [compound 42] |  | > 8.4 |  |  |  |  |  |  |
| CC(=O)c1ccc(OCc2ccccc2)c(NC(=O)CCN2CCN(c3ccccn3)CC2)c1 [compound 5] | 0.91 | 1.21 |  | 3.89 µmol/kg | 89 µmol/kg |  |  |  |
| COc1cccc(N2CCN(CCC(=O)Nc3ccc([N+](=O)[O-])cc3)CC2)n1 [compound 31] |  | 4.39 | 130 µmol/kg |  |  |  |  |  |
| O=C(CCN1CCN(c2ccccn2)CC1)Nc1cccc(C(F)(F)F)c1 [compound 37] | 0.56 | 1.17 |  |  |  |  |  |  |
| CC(=O)c1ccc(NC(=O)CCN2CCN(c3ccccn3)CC2)cc1 [compound 13] | 0.48 | 1.5 |  | 0.02 µmol/kg | 104 µmol/kg |  |  |  |
| O=C(CCN1CCN(c2ccccn2)CC1)Nc1c(Cl)cccc1Cl [compound 36] | 0.8 | 1.24 | 29 µmol/kg | 0.4 µmol/kg |  |  |  |  |
| O=C(CCN1CCN(c2ccccn2)CC1)Nc1ccc(Cl)cc1 [compound 35] | 0.62 | 0.96 | 39 µmol/kg | 2.27 µmol/kg |  |  |  |  |
| CC(=O)c1cccc(NC(=O)CCN2CCN(c3ccccn3)CC2)c1 [compound 40] | 0.68 | 1.11 | 73 µmol/kg | 0.2 µmol/kg |  |  |  |  |
| CCOC(=O)C(=O)Nc1ccc(NC(=O)CCN2CCN(c3ccccn3)CC2)cc1 [compound 12] | > 2.35 | > 7.05 |  |  |  | 180 µmol/kg | 130 µmol/kg | 0.23 µmol/kg |
| Cc1cc(C)c(C)c(NC(=O)CCN2CCN(c3ccccn3)CC2)c1C [compound 15] | 0.57 |  | 26 µmol/kg | 1.56 µmol/kg | 19 µmol/kg |  |  |  |
| O=C(CCN1CCN(c2ccccn2)CC1)Nc1ccc([N+](=O)[O-])cc1 [compound 6] | 0.47 | 0.81 |  | 0.94 µmol/kg | 27 µmol/kg |  |  |  |
| Nc1ccc(NC(=O)CCN2CCN(c3ccccn3)CC2)cc1 [compound 7] | 1.11 | 1.29 | 74 µmol/kg | 0.02 µmol/kg | 27 µmol/kg |  |  |  |
| CCOC(=O)c1ccc(NC(=O)CCN2CCN(c3ccccn3)CC2)cc1 [compound 41] | 0.66 | 0.92 | 28 µmol/kg | 0.17 µmol/kg | 220 µmol/kg |  |  |  |
